Legend:
[1] = target: T1, Skp1/Skp2 binding interaction (Homo sapiens, UniProt Q13309); experiment: In vitro Skp2-Skp1 binding assay (GST pull-down)
T1 construct: made in house; host or cells: GST-Skp1: E. coli BL21; Skp2: in vitro translation
Experimental: For in vitro GST-Skp1 and Skp2 interaction, GST-Skp1 proteins purified from the bacterial lysates of BL21 competent cells transformed with pGEX-4X1-Skp1 using the Glutathione-Agarose beads according to the manufacturer's standard procedures. The GST-Skp1 proteins bound to glutathione Sepharose beads (Amersham Biosciences) were then incubated with the in vitro translated [35^S]-Skp2 for 2 hours at 4° C. in the interaction buffer with or without compound #25 (20 mM HEPES, PH 7.9, 150 mM KCl. 5 mM EDTA, 0.5 mM DTT, 0.1% (v/v) Nonidet p-40, 0.1% (w/v) BSA, 1 mM PMSF, and 10% Glycerol), washed by the NETN buffer (20 mM Tris, pH 8.0, 100 mM NaCl, 6 mM MgCl2, 1 mM EDTA, 0.5% Nonidet P-40, 1 mM DTT, 8% glycerol, 1 mM PMSF) 4 times, and subjected to 8% SDS-PAGE, followed by autoradiography.
Below are the original lead compound and 11 similar compounds that were tested for their ability to block the Skp1/Skp2 binding interaction in an in vitro assay. The quantification was made on western blot/images, and the percentages represent the amount of intact Skp1/Skp2 remaining after treatment. In vitro binding assays were performed. For in vitro GST-Skp1 and Skp2 interaction, GST-Skp1 proteins purified from the bacterial lysates of BL21 competent cells transformed with pGEX-4X1-Skp1 using the Glutathione-Agarose beads were performed according to the manufacturer's standard procedures. The GST-Skp1 proteins bound to glutathione Sepharose beads (Amersham Biosciences) were then incubated with the in vitro translated [35^S]-Skp2 for 2 hours at 4° C. in the interaction buffer with or without lead compound and 11 similar compounds (20 mM HEPES, PH 7.9, 150 mM KCl. 5 mM EDTA, 0.5 mM DTT, 0.1% (v/v) Nonidet p-40, 0.1% (w/v) BSA, 1 mM PMSF, and 10% Glycerol), washed by the NETN buffer (20 mM Tris, pH 8.0, 100 mM NaCl, 6 mM MgCl2, 1 mM EDTA, 0.5% Nonidet P-40, 1 mM DTT, 8% glycerol, 1 mM PMSF) 4 times, and subjected to 8% SDS-PAGE, followed by autoradiography. The data presented in Table 1 below was obtained using the Skp1/Skp2 binding affinity assay. The quantification percentage results listed below are based on the western blot results.

Skp2 Trp127Ala mutant = target: T2, Skp2 Trp127Ala mutant (Homo sapiens, UniProt Q13309, W127A); experiment: In vivo p27 ubiquitination assay, Skp2 Trp127Ala mutant; assay type: cell-based
T2 construct: expressed in transfected cells; host or cells: 293T
Experimental: (§1) In vivo and in vitro ubiquitination assays were performed as described with modification (Lin et al., 2009; Yang et al., 2009). For in vitro ubiquitination assay, recombinant GST-Akt proteins were expressed, purified and eluted from the bacterial lysates of BL21 competent cells. Flag-Skp2 SCF complex were expressed in 293T cells, immunoprecipitated by anti-Flag antibody, and eluted from Protein A/G beads using Flag peptides according to manufacturers' standard procedures. Purified GST-Akt and Flag-SCF proteins were incubated for 3 h at 37° C. in the absence and presence of Skp2 inhibitor. After incubation, protein mixtures were diluted in E1A Buffer and the supernatant fluid was precleared with Protein A/G beads for 1 h, and immunoprecipitated overnight with anti-Flag antibody, after which Protein A/G beads were added for an additional 1 h. Beads were washed 4 times with E1A Buffer. Proteins were eluted in SDS-sample buffer and subjected to immunoblotting analysis. For in vivo ubiquitination assay, 293T cells were transfected with the indicated plasmids and cultured in the absence or presence of Skp2 inhibitor for 48 h. 6 h before harvest, cells were cultured in the presence of MG132. After cell harvest, cells were lysed by the denatured buffer (6M guanidine-HCl, 0.1M Na2HPO4/NaH2PO4, 10 mM imidazole). […]

[2] = target: T3, Skp2-mediated Akt ubiquitination (Homo sapiens, UniProt Q13309); experiment: In vivo Akt ubiquitination assay; assay type: cell-based; settings: FIG. 1G
T3 construct: expressed in transfected cells; host or cells: 293T
Experimental: as §1

Skp2 SCF complex = target: T4, Skp2 SCF complex (Homo sapiens, UniProt Q13309); experiment: In vitro Skp2-mediated Akt ubiquitination assay; assay type: biochemical; settings: recombinant Akt, FIG. 1H
T4 construct: made in house; host or cells: 293T cells; anti-Flag immunoprecipitation, eluted with Flag peptide
Experimental: as §1

[3] = test system: EGF-mediated Akt phosphorylation and activation; experiment: EGF-mediated Akt phosphorylation, immunoblotting; assay type: cell-based; settings: various cancer cell lines
Description: Cells were lysed with RIPA buffer in the presence of protease inhibitor cocktail (Roche). The following antibodies were used for immunoblotting analysis: anti-Skp2 (Invitrogen), anti-Xpress (Invitrogen), anti-p27 (BD transduction laboratories), anti-p21 (Santa Cruz), anti-β-actin (Sigma), anti-α-tubulin (Sigma), anti-phospho-Akt (Thr308) (Cell Signaling), anti-phospho-Akt (Ser473) (Cell Signaling), and anti-HA (Convance). For immunohistochemistry, tissues were fixed in 10% formalin and embedded in paraffin in accordance with standard procedures. Sections were stained with anti-Skp2 (Invitrogen), anti-p27 (Epitomics), anti-phosphoAkt (SerS473) (Cell signaling), anti-Glut1 (Abcam), and anti-Ki67 (Abcam). TUNEL staining was performed by using in situ cell death detection kit-POD (Roche).

ERK activation = ERK activation after EGF, immunoblotting; assay type: cell-based
Hep3B (liver) = experiment: Cell survival assay, Hep3B; assay type: cell-based, human
Experimental: For Skp2 inhibitor administration, 5-10×10^3 of cells with were seeded in 12 wells in triplicate, 24 h later, treated with compound #25 (refreshed every two days). Four days later, cells were harvested, stained with trypan blue, and viable cells were counted directly under the microscope using hemocytometer. For doxorubicin treatment, 8×10^3 of PC3 cells with were seeded in 12 wells in triplicate, 24 h later, treated with various dose of compound #25 in the presence or absence of 10 nM doxorubicin or 25 ng/ml cyclophosphamide for four and three days, respectively (refreshed every two days). After treatment, cells were harvested, stained with trypan blue, and viable cells were counted directly under the microscope using hemocytometer. Cellular senescence was determined by assessing SA-b-gal activity using senescence detection kit according to manufacturers' standard procedures (Calbiochem).

A549 xenograft tumors = experiment: A549 tumor xenograft in nude mice; assay type: in vivo; settings: IP injection
Experimental: Nude mice bearing PC3 or A549 xenograft tumors (around 100 mm^3) were administrated with vehicle or 80 mg/kg compound #25 on a daily basis. Tumor size was measured weekly with a caliper, and tumor volume was determined with the standard formula: L×W2×0.52, where L is the longest diameter and W the shortest diameter.

T1 sequence (Q13309 whole entry): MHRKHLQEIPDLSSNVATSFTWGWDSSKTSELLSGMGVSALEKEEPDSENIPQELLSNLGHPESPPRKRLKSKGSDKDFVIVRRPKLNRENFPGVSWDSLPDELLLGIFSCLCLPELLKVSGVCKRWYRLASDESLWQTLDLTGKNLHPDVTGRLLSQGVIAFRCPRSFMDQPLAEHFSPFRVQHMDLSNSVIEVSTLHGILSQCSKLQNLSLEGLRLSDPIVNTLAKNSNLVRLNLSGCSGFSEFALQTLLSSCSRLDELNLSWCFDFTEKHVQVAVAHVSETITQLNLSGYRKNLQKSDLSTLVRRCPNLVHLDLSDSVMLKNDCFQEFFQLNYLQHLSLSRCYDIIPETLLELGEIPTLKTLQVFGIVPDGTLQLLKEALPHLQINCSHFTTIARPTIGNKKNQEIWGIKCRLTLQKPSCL
T2 sequence (Q13309 whole entry W127A): as the sequence (Q13309 whole entry) above, with W127A counted along it
T3 sequence (Q13309 whole entry): as the sequence (Q13309 whole entry) above
T4 sequence (Q13309 whole entry, one chain of several): as the sequence (Q13309 whole entry) above

Q: Which results are given for `CCc1cc2c(=O)c(-c3nc4ccccc4s3)coc2c(CN2CCCCC2)c1O` [compound #25, 3-(1,3-benzothiazol-2-yl)-6-ethyl-7-hydroxy-8-(1-piperidinylmethyl)-4H-chromen-4-one]?
A: disruption of Skp2-Skp1 interaction ([1]; 5 μM): completely disrupt Skp2-Skp1 interaction; interaction between WT Skp2 and Skp1 ([1]; WT Skp2, FIG. 2D): prevented the interaction between WT Skp2 and Skp1; Normalized w/ vehicle treatment ([1]; amount of intact Skp1/Skp2 remaining after treatment, quantified on western blot/images): 10%; E3 ligase activity of Skp2 Trp127Ala mutant (Skp2 Trp127Ala mutant): abrogated E3 ligase activity; Skp2-mediated Akt ubiquitination in cells [2]: inhibited Skp2-mediated Akt ubiquitination; Skp2-mediated Akt ubiquitination in vitro (Skp2 SCF complex): attenuated Skp2-mediated Akt ubiquitination; EGF-mediated Akt phosphorylation and activation [3]: profoundly inhibited; ERK activation (ERK activation): no noticeable impact; cell viability (Hep3B (liver)): potent suppressive effect on viability; lung tumor growth in vivo (A549 xenograft tumors): potent effect

Reference: patent US9624211B2, “Anti-cancer compounds” (Board of Regents, The University of Texas System, priority 2013, dated 2017)
